Results published in US20250387449A1, “PHARMACEUTICAL COMBINATION COMPRISING AN IBAT INHIBITOR AND A BILE ACID BINDER” (Albireo AB, priority 2010, published 2025).

Key:
[1] = Phase IIb placebo-controlled dose-finding study in patients with Chronic Idiopathic Constipation: adverse events; type: in vivo, human; conditions: Example 14 plus colonic delivery of 400 mg colesevelam 3 times a day
[2] = as above; type: in vivo, human; conditions: 56 days treatment
Experimental: A Phase IIb, Double-blind, Randomized, Placebo-controlled, Multi-centre, Dose-finding, Efficacy and Safety Study of a Range of Doses of the compound of Example 14 in about 200 patients with Chronic Idiopathic Constipation, where patients were treated for 56 days, was performed. The patients were males or non-pregnant females ≥20 years of age and ≤80 years of age, having a body mass index (BMI) ≥18.5 but <35.
All patients with adverse events of diarrhea and abdominal pain type related to treatment with the compound of Example 14 are presented in table 2.

Which results are given for `CCCCC1(CCCC)CN(c2ccccc2)c2cc(SC)c(OCC(=O)N[C@@H](C(=O)NCC(=O)O)c3ccccc3)cc2S(=O)(=O)C1` [Example 14, 1,1-Dioxo-3,3-dibutyl-5-phenyl-7-methylthio-8-(N—{(R)-1′-phenyl-1′-[N′-(carboxymethyl)-carbamoyl]methyl}carbamoylmethoxy)-2,3,4,5-tetrahydro-1,5-benzothiazepine]?
bile acid dependent side effects generated from colon (diarrhoea, abdominal pain) [1]: effectively block bile acid side effects generated from the colon; Abdominal Pain, % of Population ([2]; 5 mg): 10.4 % of Population; Abdominal Pain, Number of Patients ([2]; 5 mg): 5; Diarrhoea, % of Population ([2]; 5 mg): 8.3 % of Population; Diarrhoea, Number of Patients ([2]; 5 mg): 4; Abdominal Pain, % of Population ([2]; 10 mg): 10.6 % of Population; Abdominal Pain, Number of Patients ([2]; 10 mg): 5; Diarrhoea, % of Population ([2]; 10 mg): 10.6 % of Population; Diarrhoea, Number of Patients ([2]; 10 mg): 5; Abdominal Pain, % of Population ([2]; 15 mg): 27.1 % of Population; Abdominal Pain, Number of Patients ([2]; 15 mg): 13; Diarrhoea, % of Population ([2]; 15 mg): 16.7 % of Population; Diarrhoea, Number of Patients ([2]; 15 mg): 8
